# “Also recorded” adds a separate entry of the source.
# What was measured:
# [1] = test system: NOD.scid recipients; experiment: Adoptive co-transfer of diabetes to NOD.scid recipients with spleen cells from WE14-immunized NOD mice; type: in vivo; details: 1×10^7 WE14 SC co-transferred i.v. with 1×10^7 diabetic NOD spleen cells
# Protocol: In another experiment, NOD mice (3-4 wks old) were immunized with WE14+IFA and 13 days later, single cell suspensions of the spleens (WE14 SC) were prepared. WE14 SC (1×10^7) were co-transferred with spleen cells obtained from a diabetic NOD mouse (1×10^7) into adult NOD.scid recipients by Intravenous (i.v.) injection. Urine glucose was monitored daily following cell transfer and hyperglycemia was confirmed by blood glucose readings.
# [2] = test system: CD4+ and CD8+ T cells; experiment: Immunization of NOD mice with WE14; intracellular IFNγ of pLN and spleen T cells by flow cytometry; type: in vivo; details: WE14 100 mg + IFA i.p. day 0, boost day 30; pLN and spleen at seven weeks
# Protocol: In another experiment, NOD mice (3-4 wks old) were immunized intraperitoneally (i.p.) with WE14 (100 mg+IFA) at day 0 and boosted with the same dose of peptide 30 days later. Seven weeks after the initial immunization, pancreatic lymph nodes (pLN) and spleen were harvested and single cell suspensions of these organs were made. The cells were stimulated with anti-CD3 ([…]) and anti-CD28 (2 mg/ml) for 48 hr. PMA/ionomycin and Golgiplug were added for an additional 4 hr. Cells were harvested and analyzed for intracellular IFNγ production by flow cytometry. […] See, FIG. 17.
# [3] = test system: T cell clone BDC-5.10.3; experiment: IFNγ production by T cell clone in antigen assay (ELISA); type: cell-based, NOD mouse; details: for Stimulation of T cell clone BDC-5.10.3 (IFNγ response), result in words: peptide or preparation as antigen
# From the text: (§1) The T cell clones are maintained in culture by periodic re-stimulation with irradiated NOD splenocytes and islet cells or β-membrane. To assay for antigen, resting responder T cells (i.e., for example, the cells at the end of the two-week restimulation period) are co-cultured for 24 hr with elicited peritoneal macrophages (PEC) as APC and either a test sample or control antigen. Control antigen will be in the form of islet cells or the whole-cell membrane fraction (i.e., for example, a β-membrane fraction). As described above, unlysed β-membrane is stored in aliquots at −80° C. for this purpose. Negative controls include responder cells alone and responders plus APC.
# (§2) At the end of the culture period, supernatants are collected from the cultures and IFNγ production is measured by ELISA. Wells positive for IFNγ are indicative of T cells responding to antigen; the amount of cytokine produced is calculated from a standard curve and is directly proportional to the amount of antigen present.
# (§3) Antigenicity of islet cells, cellular and biochemical fractions, peptides, or insect cells expressing IA^g7-peptide constructs, was assessed through responses of T cell clones or hybridomas made by fusing T cell clones to the TCR^− version of T cell lymphoma, BW5147. White et al., “Two better cell lines for making hybridomas expressing specific T cell receptors” J Immunol 143:1822-1825 (1989). T cell clone cultures typically contained 2×10^4 responder T cells, 2.5×10^4 NOD peritoneal exudate cells (PEC) as APC, and antigen (SEC/IEX fractions, peptides, islet cells); all assays were performed with β-Mem as a positive control. IFNγ was measured by ELISA of culture supernatants. For cultures with T cell hybridomas, antigen/MHC activation was assessed by IL-2 production measured by a bioassay using the HT-2 T cell line. Walker et al., “Antigenspecific. I region-restricted interactions in vitro between tumor cell lines and T cell hybridomas” J Immunol 128:2164-2169 (1982). Synthetic peptides were either produced in the Molecular Resource Center at National Jewish Health or obtained from CHI Scientific, Maynard, Mass.
# [4] = test system: T cell clone BDC-2.5; experiment: as above; type: cell-based, NOD mouse; details: for Stimulation of T cell clone BDC-2.5 (IFNγ response), result in words: peptide or preparation as antigen
# From the text: as §1, §2, §3
# [5] = test system: T cell clone BDC-10.1; experiment: as above; type: cell-based, NOD mouse; details: for Stimulation of T cell clone BDC-10.1 (IFNγ response), result in words: peptide or preparation as antigen
# From the text: as §1, §2, §3
# [6] = test system: soluble IA^g7; experiment: Peptide binding to IA^g7: competition with biotinylated HEL peptide; parameters: species or system NOD mouse; details: competition with biotinylated pHEL 11 μM, pH 5.6, overnight
# From the text: FIG. 15B: A series of ChgA peptides tested for their ability to compete with a biotinylated HEL peptide for binding to soluble IA^g7. pS3-positive control peptide. IE^k moth cytochrome c-negative control peptide. N=2. Y axis: Percent of IA^g7-bound biotinylated HEL peptide as compared to IE^k. X axis: Log concentration of inhibitor peptide.
# In order to confirm the unique binding register of the WE14 peptide, a series of peptides comprising N-terminal extensions and/or C-terminal deletions of WE14 were evaluated for their ability to stimulate the BDC-2.5 T cell clone (FIG. 6a) or to bind to IA^g7. See, FIG. 15A. […] See, FIG. 15B. Further, a pS3 mimotope was used as the positive control peptide and an irrelevant peptide from moth cytochrome c, pMCC, was the negative control peptide. The data were analyzed to determine the stimulatory or binding capacity of the peptides relative to WE14. See, FIG. 15C.
# Soluble IA^g7 with covalently attached pHEL was treated with thrombin to cleave the linker attaching the peptide to the IA^g7 β chain. Kozono et al., “Production of soluble MHC class II proteins with covalently bound single peptides” Nature 369:151-154 (1994). Samples (0.5 μg) were incubated with a soluble biotinylated version of pHEL, Biotin-GGGMKRHGLDNYRGYSL (SEQ ID NO: 56) (11 μM), either alone or in the presence of various concentrations of potential competitors peptides, in 15 μL of pH 5.6 buffer overnight at room temperature. The sample was diluted to 100 μL of PBS in a well of a 96-well ELISA plate coated with an anti-IA^g7 monoclonal antibody, OX-6 (BD Pharmaceuticals). The captured IA^g7 was washed several times with PBS and the bound bio-pHEL detected with alkaline phosphatase coupled Extravadin (Sigma) and […].
# [7] = test system: diabetogenic T cells; experiment: Immunization of BDC-2.5 TCR-Tg NOD mice with WE14; spleen cell IFNγ ELISA; type: in vivo; details: WE14 50 mg in CFA day 0, boost in IFA day 7; spleen cells day 14, WE14 100 mg or 200 mg as antigen
# Protocol: In one experiment, BDC-2.5 TCR-Tg NOD mice were immunized with WE14 ([…]) in complete Freund's adjuvant (CFA) at day 0 and boosted with WE14 in incomplete Freund's adjuvant (IFA) at day 7. Spleen cells were harvested 14 days after the initial immunization and assayed by ELISA with WE14 (100 mg or 200 mg) as antigen. […] See, FIG. 16.
sequence,measurement,setting,value
"WSRMDQLAKELTAE (listed as Mus musculus) [WE14, natural cleavage product of ChgA, aa 359-372]",Onset of disease induced by diabetic NOD spleen cells,[1],considerably delayed
same,Inflammatory response (intracellular IFNγ) of CD4+ and CD8+ T cells in lymphoid organs,[2],suppress
same,"Potency in activating the BDC clones, fold less potent than the pS3 mimotope","[3]; BDC-5.10.3, synthetic peptide",at least 1000 fold
same,"Stimulation of T cell clone BDC-5.10.3 (IFNγ response), result in words",[3],stimulated; also recorded: considerably less potent
same,"Stimulation of T cell clone BDC-5.10.3 (IFNγ response), result in words",[3]; listed as WE-14,stimulated
same,Antigen response as percentage of maximal IFN-γ response [% Max],"[4]; 100 mg/ml peptide, 100 mg/ml β-membrane = 100%",~15%
same,"Potency in activating the BDC clones, fold less potent than the pS3 mimotope","[4]; BDC-2.5, synthetic peptide",at least 1000 fold
same,"Stimulation of T cell clone BDC-2.5 (IFNγ response), result in words",[4],weak stimulator; also recorded: weakly stimulated; also recorded: considerably less potent; also recorded: only very weakly
same,"Stimulation of T cell clone BDC-2.5 (IFNγ response), result in words",[4]; listed as WE-14,stimulated
same,"Potency in activating the BDC clones, fold less potent than the pS3 mimotope","[5]; BDC-10.1, synthetic peptide",at least 1000 fold
same,"Stimulation of T cell clone BDC-10.1 (IFNγ response), result in words",[5],stimulated; also recorded: considerably less potent
same,"Stimulation of T cell clone BDC-10.1 (IFNγ response), result in words",[5]; listed as WE-14,stimulated
same,"IA^g7 binding, result in words",[6],can bind
same,IFNγ response of the diabetogenic T cells after immunization,[7],considerably reduced

# From US20120128646A1, “METHODS AND COMPOSITIONS FOR THE TREATMENT OF AUTOIMMUNE DISEASE” (priority 2009, published 2012)
